Patent US20070032529A1, “Pyrazole compounds and their use as antidiabetes agents” (Japan Tobacco Inc., priority 2005, published 2007)

Experiments:
[1] = molecular target: T1, recombinant human liver glycogen phosphorylase (Homo sapiens, UniProt P06737); assay: Measuring liver glycogen phosphorylase activity (forward reaction system, NADPH absorbance at 340 nm); assay type: biochemical
T1 construct: made in house; host or cells: Sf9 insect cells (crude homogenate, diluted, used as the enzyme solution)
T1 sequence (P06737 1-847): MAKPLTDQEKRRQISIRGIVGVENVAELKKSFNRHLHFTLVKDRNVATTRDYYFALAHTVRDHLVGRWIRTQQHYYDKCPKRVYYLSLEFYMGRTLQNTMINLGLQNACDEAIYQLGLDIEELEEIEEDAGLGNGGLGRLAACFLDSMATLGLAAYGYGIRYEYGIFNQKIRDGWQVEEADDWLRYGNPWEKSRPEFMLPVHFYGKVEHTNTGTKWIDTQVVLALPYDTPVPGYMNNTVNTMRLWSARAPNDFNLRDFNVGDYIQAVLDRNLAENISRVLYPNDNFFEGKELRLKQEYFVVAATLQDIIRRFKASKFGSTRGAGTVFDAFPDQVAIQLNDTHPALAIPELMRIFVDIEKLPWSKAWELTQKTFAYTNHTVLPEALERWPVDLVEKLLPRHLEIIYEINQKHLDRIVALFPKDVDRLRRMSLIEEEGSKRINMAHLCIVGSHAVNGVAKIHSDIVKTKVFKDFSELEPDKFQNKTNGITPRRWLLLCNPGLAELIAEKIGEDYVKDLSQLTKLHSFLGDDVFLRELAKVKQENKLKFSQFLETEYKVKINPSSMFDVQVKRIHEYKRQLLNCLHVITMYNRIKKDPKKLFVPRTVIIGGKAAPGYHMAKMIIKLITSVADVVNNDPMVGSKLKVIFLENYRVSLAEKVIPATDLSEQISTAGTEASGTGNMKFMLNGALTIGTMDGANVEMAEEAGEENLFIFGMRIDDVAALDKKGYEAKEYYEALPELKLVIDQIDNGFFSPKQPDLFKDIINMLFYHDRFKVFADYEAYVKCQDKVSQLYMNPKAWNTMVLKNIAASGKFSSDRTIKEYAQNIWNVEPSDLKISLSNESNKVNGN
In short: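 Compounds in 1% DMSO; activity taken as blank-subtracted 340 nm absorbance change across 75 min at room temperature. Forward reaction: glucose-1-phosphate released from glycogen converted by coupling enzymes, yielding NADPH; enzyme from recombinant Sf9 homogenate, reaction containing glucose, pH 6.8. IC50 from two-point linear interpolation.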

[2] = tested on: db/db mice; assay: Measuring blood plasma glucose concentration in db/db mice (hypoglycemic effect); assay type: in vivo; set-up: key: ++: compounds exhibiting statistically significant hypoglycemic effect at a dose of 10 mg/kg or less; +: compounds exhibiting not significant but obvious hypoglycemic effect at a dose of 10 mg/kg; conditions: for vivo (hypoglycemic effect in db/db mice): db/db mice fasted 4 h, oral administration, plasma glucose 1 and 3 hours after administration, dose 10 mg/kg or less, Dunnett test vs solvent
In short: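 db/db mice aged 9-18 weeks, grouped 5 or 8 per group matched on plasma glucose, fasted 4 h, then dosed orally with compound or 0.5% methylcellulose vehicle. Plasma glucose measured 1 and 3 h post-dose; each timepoint compared against vehicle by Dunnett test.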

[3] = enzyme inhibitory activity with respect to liver glycogen phosphorylase, class symbols

In the case of CCCN(Cc1ccc(N(C)C)nc1)C(=O)c1cc(NC(=O)c2cc(F)c(F)cc2Cl)[nH]n1 [Example 1-130], the IC50 [1, 3] is reported as less than 100 nM and the “vivo (hypoglycemic effect in db/db mice)” value [2] is reported as “+”.
CN(C(=O)c1cc(NC(=O)c2cc(F)c(F)cc2Cl)[nH]n1)c1ccc(-c2nsc(=O)[nH]2)cc1 [Example 6-16] was tested, and the IC50 ([1]; human liver glycogen phosphorylase, class symbol) was less than 100 nM and the “vivo (hypoglycemic effect)” value ([2]; db/db mice, blood plasma glucose, dose of 10 mg/kg or less) was “+”.
O=C(NCc1ccc(N2CCC(O)CC2)nc1)c1cc(NC(=O)c2cc(F)c(F)cc2Cl)[nH]n1 [Example 1-138] was tested, and the IC50 [1, 3] was less than 100 nM and the “vivo (hypoglycemic effect in db/db mice)” value [2] was “+”.
Cc1nc(N2CCOCC2)sc1CNC(=O)c1cc(NC(=O)c2cc(F)c(F)cc2Cl)[nH]n1 [Example 1-63] was tested, and the IC50 [1, 3] was less than 100 nM and the “vivo (hypoglycemic effect in db/db mice)” value [2] was “+”.
In the case of COc1ccnc(CNC(=O)c2cc(NC(=O)c3cc(F)c(F)cc3Cl)[nH]n2)c1 [Example 3-45], the IC50 [1, 3] is reported as less than 100 nM and the “vivo (hypoglycemic effect in db/db mice)” value [2] is reported as “+”.
For O=C(NCc1ccccc1)c1cc(NC(=O)c2cc(F)c(F)cc2Cl)[nH]n1 [Example 3-2, 5-(2-chloro-4,5-difluoro-benzoylamino)-1H-pyrazole-3-carboxylic acid benzylamide], the IC50 [1, 3] was 100 to 300 nM and the “vivo (hypoglycemic effect in db/db mice)” value [2] was “+”.
